Bridge positions count the residues as written; N and C are the ends. Square brackets hold non-standard residues; d marks the D form. Peptide text beside a SMILES is read from it. Hyp = O=C(O)[C@@H]1C[C@@H](O)CN1
Molecular target: N-type or omega HVA neuronal calcium channels; calcium currents in N1E-115 neuroblastoma cells (Mus musculus, UniProt O55017)
Format: cell-based

Chain of N-type or omega HVA neuronal calcium channels; calcium currents in N1E-115 neuroblastoma cells (O55017 whole entry): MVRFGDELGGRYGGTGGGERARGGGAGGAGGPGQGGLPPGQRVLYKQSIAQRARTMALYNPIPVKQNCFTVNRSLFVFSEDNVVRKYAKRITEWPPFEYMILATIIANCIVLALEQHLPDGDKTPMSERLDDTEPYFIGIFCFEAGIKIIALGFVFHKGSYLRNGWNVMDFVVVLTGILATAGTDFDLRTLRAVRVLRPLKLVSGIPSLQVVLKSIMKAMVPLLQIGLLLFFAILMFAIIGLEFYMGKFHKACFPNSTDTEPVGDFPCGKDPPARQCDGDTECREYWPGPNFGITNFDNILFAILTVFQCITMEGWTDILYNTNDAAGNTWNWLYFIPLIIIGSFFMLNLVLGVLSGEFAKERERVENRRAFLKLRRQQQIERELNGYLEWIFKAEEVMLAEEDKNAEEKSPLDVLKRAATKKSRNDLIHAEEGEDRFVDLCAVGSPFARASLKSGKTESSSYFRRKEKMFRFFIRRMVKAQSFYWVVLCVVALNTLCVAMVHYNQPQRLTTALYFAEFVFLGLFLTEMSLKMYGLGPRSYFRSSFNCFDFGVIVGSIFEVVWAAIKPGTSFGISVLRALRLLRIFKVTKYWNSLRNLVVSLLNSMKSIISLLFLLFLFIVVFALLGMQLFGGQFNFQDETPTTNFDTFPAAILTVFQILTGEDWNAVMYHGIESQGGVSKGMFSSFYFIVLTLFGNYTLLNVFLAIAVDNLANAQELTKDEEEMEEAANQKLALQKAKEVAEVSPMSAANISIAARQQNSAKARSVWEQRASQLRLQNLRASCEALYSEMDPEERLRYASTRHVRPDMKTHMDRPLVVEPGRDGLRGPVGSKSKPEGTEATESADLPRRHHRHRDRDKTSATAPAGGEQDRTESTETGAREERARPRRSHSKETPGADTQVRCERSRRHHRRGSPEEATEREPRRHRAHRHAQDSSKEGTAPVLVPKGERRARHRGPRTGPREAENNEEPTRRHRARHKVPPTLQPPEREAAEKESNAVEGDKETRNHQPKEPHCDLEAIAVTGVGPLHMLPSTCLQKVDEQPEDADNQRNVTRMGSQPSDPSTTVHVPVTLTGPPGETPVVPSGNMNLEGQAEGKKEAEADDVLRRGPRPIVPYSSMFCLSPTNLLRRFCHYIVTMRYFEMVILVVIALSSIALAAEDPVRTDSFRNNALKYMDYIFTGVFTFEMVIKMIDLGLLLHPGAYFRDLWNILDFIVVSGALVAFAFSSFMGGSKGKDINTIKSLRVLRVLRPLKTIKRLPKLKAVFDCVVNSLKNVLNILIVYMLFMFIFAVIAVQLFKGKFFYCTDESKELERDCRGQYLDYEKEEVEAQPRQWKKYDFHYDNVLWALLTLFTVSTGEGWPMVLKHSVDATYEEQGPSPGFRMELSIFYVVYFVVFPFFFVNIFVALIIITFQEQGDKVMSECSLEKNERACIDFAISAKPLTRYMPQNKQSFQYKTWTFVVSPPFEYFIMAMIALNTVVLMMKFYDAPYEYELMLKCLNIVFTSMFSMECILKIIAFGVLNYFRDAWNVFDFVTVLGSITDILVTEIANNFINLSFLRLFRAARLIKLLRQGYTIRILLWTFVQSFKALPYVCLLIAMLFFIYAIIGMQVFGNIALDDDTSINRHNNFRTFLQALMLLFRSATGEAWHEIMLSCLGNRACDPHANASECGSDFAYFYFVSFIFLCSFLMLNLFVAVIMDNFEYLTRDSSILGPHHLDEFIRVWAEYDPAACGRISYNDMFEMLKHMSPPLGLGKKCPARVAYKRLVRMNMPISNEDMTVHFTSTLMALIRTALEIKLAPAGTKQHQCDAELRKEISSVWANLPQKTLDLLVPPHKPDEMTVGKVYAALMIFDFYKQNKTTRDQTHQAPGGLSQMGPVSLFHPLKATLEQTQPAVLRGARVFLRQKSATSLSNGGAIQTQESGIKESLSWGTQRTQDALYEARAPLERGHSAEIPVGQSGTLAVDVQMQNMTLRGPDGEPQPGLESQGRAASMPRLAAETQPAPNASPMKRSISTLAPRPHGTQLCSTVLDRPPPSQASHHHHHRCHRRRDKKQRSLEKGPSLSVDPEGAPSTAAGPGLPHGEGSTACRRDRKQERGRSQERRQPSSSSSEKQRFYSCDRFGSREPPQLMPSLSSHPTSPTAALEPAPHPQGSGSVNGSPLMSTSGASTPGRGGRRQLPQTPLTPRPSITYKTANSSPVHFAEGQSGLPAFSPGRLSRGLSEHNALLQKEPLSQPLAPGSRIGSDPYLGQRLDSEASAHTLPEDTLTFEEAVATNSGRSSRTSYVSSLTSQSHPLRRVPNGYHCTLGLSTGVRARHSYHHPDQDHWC
Chain of N-type or omega HVA neuronal calcium channels; calcium currents in N1E-115 neuroblastoma cells (O08532 25-956 partner limits assumed): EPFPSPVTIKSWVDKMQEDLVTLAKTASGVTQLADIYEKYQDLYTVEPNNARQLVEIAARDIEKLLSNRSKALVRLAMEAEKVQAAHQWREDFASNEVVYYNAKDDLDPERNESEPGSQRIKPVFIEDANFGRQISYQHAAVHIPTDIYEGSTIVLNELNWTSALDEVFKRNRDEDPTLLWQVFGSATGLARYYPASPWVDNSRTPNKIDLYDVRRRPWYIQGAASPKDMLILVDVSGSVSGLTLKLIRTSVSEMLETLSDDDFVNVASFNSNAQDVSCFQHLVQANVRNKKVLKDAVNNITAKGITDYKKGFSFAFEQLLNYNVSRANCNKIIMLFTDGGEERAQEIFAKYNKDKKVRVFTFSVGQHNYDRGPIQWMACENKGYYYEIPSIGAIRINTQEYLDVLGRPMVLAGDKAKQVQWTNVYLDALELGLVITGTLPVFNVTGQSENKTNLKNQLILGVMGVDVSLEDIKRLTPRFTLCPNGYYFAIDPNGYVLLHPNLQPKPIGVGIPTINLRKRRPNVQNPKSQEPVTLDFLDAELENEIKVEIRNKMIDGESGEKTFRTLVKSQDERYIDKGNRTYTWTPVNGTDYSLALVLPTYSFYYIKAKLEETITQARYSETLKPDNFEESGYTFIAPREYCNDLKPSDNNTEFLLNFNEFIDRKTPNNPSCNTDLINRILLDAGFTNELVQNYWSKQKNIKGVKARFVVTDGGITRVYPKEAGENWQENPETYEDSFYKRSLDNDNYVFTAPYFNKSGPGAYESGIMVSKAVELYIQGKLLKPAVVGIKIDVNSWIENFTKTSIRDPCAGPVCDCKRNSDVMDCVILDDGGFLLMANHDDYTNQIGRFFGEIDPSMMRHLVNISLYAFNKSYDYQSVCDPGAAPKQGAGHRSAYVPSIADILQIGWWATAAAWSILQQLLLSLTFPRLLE
Chain of N-type or omega HVA neuronal calcium channels; calcium currents in N1E-115 neuroblastoma cells (O08532 957-1103 partner limits assumed): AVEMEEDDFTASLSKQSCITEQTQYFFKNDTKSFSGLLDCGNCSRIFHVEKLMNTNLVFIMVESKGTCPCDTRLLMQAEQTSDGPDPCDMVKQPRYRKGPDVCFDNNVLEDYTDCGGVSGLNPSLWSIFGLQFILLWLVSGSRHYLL

CC[C@H](C)[C@@H]1NC(=O)[C@H](CO)NC(=O)[C@H]([C@@H](C)O)NC(=O)[C@H](C(C)C)NC(=O)CNC(=O)[C@@H]2CSSC[C@@H]3NC(=O)[C@H](CCCNC(=N)N)NC(=O)CNC(=O)[C@H](CSSC[C@H](N)C(=O)N[C@@H](CCCNC(=N)N)C(=O)N[C@@H](CO)C(=O)N[C@@H](CO)C(=O)NCC(=O)N[C@@H](CO)C(=O)N4C[C@H](O)C[C@H]4C(=O)N2)NC(=O)[C@H](CSSC[C@@H](C(=O)N[C@H](C(N)=O)[C@@H](C)O)NC(=O)[C@H](CCCCN)NC(=O)CNC(=O)[C@H](CCCNC(=N)N)NC(=O)[C@H](Cc2ccc(O)cc2)NC3=O)NC1=O [SNX-157] (H-CRSSGS[Hyp]CGVTSICCGRCYRGKCT-NH2; disulfide 1-15, 8-18, 14-23)
IC50, inhibition of calcium currents in N1E-115 neuroblastoma cells: > 20 μM
